According to patent publication US7915292B2, “Antibacterial quinoline derivatives” (Janssen Pharmaceutica NV, priority 2005, dated 2011):
In brackets after ≈: the same amount, converted by molar mass.

How the values were obtained:
ECO 25922 = test: Microtitre plate assay, IC90 determination, ECO 25922; assay type: cell-based, E. coli; conditions: 90% inhibitory concentration for bacterial growth, strain ECO 25922, 24 hours at 37° C.; for IC90: Escherichia coli, read-out: IC90 (μg/ml) ECO 25922
Protocol: (§1) Stocks (0.5 ml/tube) were stored at -70° C. until use. Bacteria titrations were performed in microtiter plates to detect the TCID50, in which the TCID50 represents the dilution that gives rise to bacterial growth in 50% of inoculated cultures. In general, an inoculum level of approximately 100 TCID50 was used for susceptibility testing. […] Serial five-fold dilutions (45 μl in 180 μl) were made directly in the microtiter plates from column 2 to reach column 11. Untreated control samples with (column 1) and without (column 12) inoculum were included in each microtiter plate. Depending on the bacteria type, approximately 10 to 60 CFU per well of bacteria inoculum (100 TCID50), in a volume of 100 μl in 2.8× Mueller-Hinton broth medium, was added to the rows […]. The same volume of broth medium without inoculum was added to column 12 in row A to H. The cultures were incubated at 37° C. for 24 hours under a normal atmosphere (incubator with open air valve and continuous ventilation). At the end of incubation, one day after inoculation, the bacterial growth was quantitated fluorometrically. Therefore resazurin (0.6 mg/ml) was added in a volume of 20 μl to all wells 3 hours after inoculation, and the plates were re-incubated overnight. A change in colour from blue to pink indicated the growth of bacteria. The fluorescence was read in a computer-controlled fluorometer (Cytofluor Biosearch) at an excitation wavelength of 530 nm and an emission wavelength of 590 nm. The % growth inhibition achieved by the compounds was calculated according to standard methods. The IC90 (expressed in μg/ml) was defined as the 90% inhibitory concentration for bacterial growth.

M. Smegmatis ATCC607 = test: In-vitro anti-bacterial activity against strain M. smegmatis ATCC607 (Alamar Blue growth inhibition); assay type: cell-based; conditions: 48 hours incubation; for IC50: Mycolicibacterium smegmatis, read-out: M. smegmatis pIC50 (converted)
Protocol: Serial five-fold dilutions (45 μl in 180 μl) were made directly in the microtiter plates from column 2 to 11 using a customised robot system (Zymark Corp., Hopkinton, Mass.). Pipette tips were changed after every 3 dilutions to minimize pipetting errors with high hydrophobic compounds. Untreated control samples with (column 1) and without (column 12) inoculum were included in each microtiter plate. Approximately 250 CFU per well of bacteria inoculum, in a volume of 100 μl in 2.8× Mueller-Hinton broth medium, was added to the rows […]. The same volume of broth medium without inoculum was added to column 12 in row A to H. The cultures were incubated at 37° C. for 48 hours in a humidified 5% CO2 atmosphere (incubator with open air valve and continuous ventilation). At the end of incubation, two days after inoculation, the bacterial growth was quantitated fluorometrically. Therefore Alamar Blue (10×) was added to all wells in a volume of 20 μl and plates were incubated for another 2 hours at […] The fluorescence was read in a computer-controlled fluorometer (Cytofluor, Biosearch) at an excitation wavelength of 530 nm and an emission wavelength of 590 nm (gain 30). The percentage growth inhibition achieved by the compounds was calculated according to standard methods and expressed as pIC50 values.

[1] = test system: Mycobacterium tuberculosis (strain H37RV); test: In-vitro method for testing compounds against M. tuberculosis (resazurin growth inhibition); assay type: cell-based; conditions: Mycobacterium tuberculosis, 168 h, 7 days incubation, read-out: M. tuberculosis pIC50 (converted)
STA 29213 = test: Microtitre plate assay, IC90 determination, STA 29213; assay type: cell-based, S. aureus; conditions: 90% inhibitory concentration for bacterial growth, strain STA 29213, 24 hours at 37° C.; for IC90: Staphylococcus aureus, read-out: IC90 (μg/ml) STA 29213
Protocol: as §1

LMO 49594 = test: Microtitre plate assay, IC90 determination, LMO 49594; assay type: cell-based, Listeria monocytogenes; conditions: Listeria monocytogenes; 90% inhibitory concentration for bacterial growth; strain LMO 49594; 24 hours at 37° C.; read-out: IC90 (μg/ml) LMO 49594
Protocol: as §1

EFA 29212 = test: Microtitre plate assay, IC90 determination, EFA 29212; assay type: cell-based, E. faecalis; conditions: Enterococcus faecalis; 90% inhibitory concentration for bacterial growth; strain EFA 29212; 24 hours at 37° C.; read-out: IC90 (μg/ml) EFA 29212
Protocol: as §1

SPY 8668 = test: Microtitre plate assay, IC90 determination, SPY 8668; assay type: cell-based, S. pyogens; conditions: 90% inhibitory concentration for bacterial growth; strain SPY 8668; 24 hours at 37° C.; read-out: IC90 (μg/ml) SPY 8668
Protocol: as §1

STA RMETH = test: Microtitre plate assay, IC90 determination, STA RMETH; assay type: cell-based, S. aureus; conditions: Staphylococcus aureus; 90% inhibitory concentration for bacterial growth; strain STA RMETH; 24 hours at 37° C.; read-out: IC90 (μg/ml) STA RMETH
Protocol: as §1

SMU 33402 = test: Microtitre plate assay, IC90 determination, SMU 33402; assay type: cell-based, S. mutans; conditions: Streptococcus mutans; 90% inhibitory concentration for bacterial growth; strain SMU 33402; 24 hours at 37° C.; read-out: IC90 (μg/ml) SMU 33402
Protocol: as §1

SPN 6305 = test: Microtitre plate assay, IC90 determination, SPN 6305; assay type: cell-based, S. pneumoniae; conditions: 90% inhibitory concentration for bacterial growth, strain SPN 6305, 24 hours at 37° C.
Protocol: as §1

STA 25923 = test: Microtitre plate assay, IC90 determination, STA 25923; assay type: cell-based, S. aureus; conditions: Staphylococcus aureus; 90% inhibitory concentration for bacterial growth; strain STA 25923; 24 hours at 37° C.; read-out: IC90 (μg/ml) STA 25923
Protocol: as §1

BSU 43639 = test: Microtitre plate assay, IC90 determination, BSU 43639; assay type: cell-based, Bacillus subtilis; conditions: Bacillus subtilis; 90% inhibitory concentration for bacterial growth; strain BSU 43639; 24 hours at 37° C.; read-out: IC90 (μg/ml) BSU 43639
Protocol: as §1

PAE 27853 = test: Microtitre plate assay, IC90 determination, PAE 27853; assay type: cell-based, Pseudomonas aeruginosa; conditions: Pseudomonas aeruginosa; 90% inhibitory concentration for bacterial growth; strain PAE 27853; 24 hours at 37° C.; read-out: IC90 (μg/ml) PAE 27853
Protocol: as §1

Question: For `COc1nc2ccc(C)cc2cc1C(c1ccccc1)N(CC(=O)N1CCOCC1)Cc1ccccc1` (stereo not drawn) [Compound 59], which melting point is on record?
Answer: The melting point was 126 °C.

Question: What about the IC90 (ECO 25922) of the same molecule?
Answer: Its IC90 is 12.4 µg/mL (≈ 25 µM).

Question: And the IC50 (M. Smegmatis ATCC607)?
Answer: Its IC50 is 1580 nM.

Question: Which melting point does the source give for `Cc1ccc2nc(-c3ccccc3)c(C(c3ccccc3)N(CC(=O)N3CCCCC3)Cc3ccccc3)cc2c1` (stereo not drawn) [Compound 66] here?
Answer: Its melting point is 78 °C.

Question: And the IC90 (ECO 25922)?
Answer: The IC90 was 13.6 µg/mL (≈ 25.2 µM).

Question: And the IC50 (M. Smegmatis ATCC607)?
Answer: The IC50 was 2510 nM.

Question: And the IC50 [1]?
Answer: Its IC50 is 39800 nM.

Question: For `Cc1ccc2nc(-c3ccccc3)c(C(c3ccccc3)N(CC(=O)NN3CCN(C)CC3)Cc3ccccc3)cc2c1` (stereo not drawn) [Compound 69], which IC90 (STA 29213) is on record?
Answer: The IC90 was 9 µg/mL (≈ 15.8 µM).

Question: And the IC50 (M. Smegmatis ATCC607)?
Answer: Its IC50 is 1580 nM.

Question: With `Cc1ccc2nc(-c3ccccc3)c(C(c3ccccc3)N(CC(=O)N3CCSCC3)Cc3ccccc3)cc2c1` (stereo not drawn) [Compound 70] as the molecule, how does the melting point read?
Answer: The melting point was 144 °C.

Question: What about the IC90 (LMO 49594) of the same molecule?
Answer: The IC90 was 14 µg/mL (≈ 25.1 µM).

Question: And the IC90 (ECO 25922)?
Answer: Its IC90 is 14 µg/mL (≈ 25.1 µM).

Question: And the IC50 (M. Smegmatis ATCC607)?
Answer: Its IC50 is 251 nM.

Question: And the IC50 [1]?
Answer: The IC50 was 3160 nM.

Question: And the IC90 (EFA 29212)?
Answer: Its IC90 is 14 µg/mL (≈ 25.1 µM).

Question: For `COc1nc2ccc(Br)cc2cc1C(c1ccccc1)N(CC(=O)N1CCN(C)CC1)Cc1ccccc1` (stereo not drawn) [Compound 104], which IC90 (STA 29213) is on record?
Answer: Its IC90 is 11.4 µg/mL (≈ 19.9 µM).

Question: What about the IC90 (SPY 8668) of the same molecule?
Answer: Its IC90 is 11.4 µg/mL (≈ 19.9 µM).

Question: And the melting point?
Answer: Its melting point is 152 °C.

Question: And the IC90 (STA RMETH)?
Answer: The IC90 was 12.8 µg/mL (≈ 22.3 µM).

Question: And the IC90 (SMU 33402)?
Answer: The IC90 was 11.4 µg/mL (≈ 19.9 µM).

Question: What about the IC90 (SPN 6305; Streptococcus pneumoniae, read-out: IC90 (μg/ml) SPN 6305) of the same molecule?
Answer: The IC90 was 14.4 µg/mL (≈ 25.1 µM).

Question: What about the IC90 (ECO 25922) of the same molecule?
Answer: Its IC90 is 14.4 µg/mL (≈ 25.1 µM).

Question: And the IC90 (STA 25923)?
Answer: The IC90 was 12.8 µg/mL (≈ 22.3 µM).

Question: What about the IC50 (M. Smegmatis ATCC607) of the same molecule?
Answer: Its IC50 is 1580 nM.

Question: And the IC90 (BSU 43639)?
Answer: The IC90 was 12.8 µg/mL (≈ 22.3 µM).

Question: What about the IC90 (PAE 27853) of the same molecule?
Answer: The IC90 was 14.4 µg/mL (≈ 25.1 µM).

Question: With `COc1nc2ccc(Br)cc2cc1C(c1ccccc1)N(CC(=O)N1CCOCC1)Cc1ccccc1` (stereo not drawn) [Compound 112] as the molecule, how does the “IC90 (μg/ml) STA 29213” value (STA 29213) read?
Answer: The value was 14.1 µg/mL (≈ 25.2 µM).

Question: What about the “M. smegmatis pIC50” value (M. Smegmatis ATCC607) of the same molecule?
Answer: The value was 5.8.

Question: For `COc1nc2ccc(C#N)cc2cc1C(c1ccccc1)N(CC(=O)N1CCCC1)Cc1ccccc1` (stereo not drawn) [Compound 122], which melting point is on record?
Answer: The melting point was 161 °C.

Question: And the IC90 (ECO 25922)?
Answer: The IC90 was 12.3 µg/mL (≈ 25.1 µM).

Question: What about the IC50 (M. Smegmatis ATCC607) of the same molecule?
Answer: The IC50 was 63100 nM.

Question: Which “IC90 (μg/ml) SPN 6305” value (SPN 6305) does the source give for `COc1nc2ccc(C#N)cc2cc1C(c1ccccc1)N(CC(=O)N1CCN(C)CC1)Cc1ccccc1` (stereo not drawn) [Compound 123] here?
Answer: The value was 13.1 µg/mL (≈ 25.2 µM).

Question: What about the “IC90 (μg/ml) ECO 25922” value (ECO 25922) of the same molecule?
Answer: The value was 13.1 µg/mL (≈ 25.2 µM).

Question: What about the “M. smegmatis pIC50” value (M. Smegmatis ATCC607) of the same molecule?
Answer: The value was 5.2.

Question: For `CCOC(=O)CN(Cc1ccccc1)C(c1ccccc1)c1cc2cc(Br)ccc2nc1OC` (stereo not drawn) [Compound 137], which IC90 (ECO 25922) is on record?
Answer: The IC90 was 13 µg/mL (≈ 25 µM).

Question: And the IC90 (STA 25923)?
Answer: Its IC90 is 11.6 µg/mL (≈ 22.3 µM).

Question: What does the source list for `CCOC(=O)CN(Cc1cccc2ncccc12)C(c1ccccc1)c1cc2cc(Br)ccc2nc1OC` (stereo not drawn) [Compound 145]?
Answer: melting point: 96 °C; IC50 (M. Smegmatis ATCC607): 31600 nM

Question: With `CCOC(=O)CN(Cc1ccccc1)C(c1ccccc1)c1cc2cc(C#N)ccc2nc1OC` (stereo not drawn) [Compound 151] as the molecule, how does the melting point read?
Answer: The melting point was 148 °C.
